Experiments:
[1] = system: BC-1 (B-Cell Non-Hodgkin's Lymphoma); test: Bliss excess, mean over the matrix (fraction); higher = more synergy
Outline: (§1)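 After 24 hours at 37°C and 5% CO2 in 1536-well plates, cells in DMEM/F12 or RPMI plus 10% FBS received two-drug dose matrices for 72 hours. Viability came from CellTiter-Glo 2.0 luminescence and was scaled as inhibition, anchored at 0 by vehicle wells and at 1 by blank wells. Combination Emax is taken as the second-highest inhibition in the matrix, and Bliss excess as the observed combination effect less EA + EB − EA·EB, with EA and EB the single-agent effects.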

[2] = system: NCI-H1648 (Lung Adenocarcinoma); test: as above
Outline: as §1

[3] = system: NCI-H2009 (Lung Adenocarcinoma); test: as above
Outline: as §1

[4] = system: SK-MEL-24 (Melanoma); test: as above
Outline: as §1

[5] = system: SW1463 (Colorectal Carcinoma); test: as above
Outline: as §1

[6] = system: CAL-85-1 (Breast Carcinoma); test: combination Emax (second highest fraction inhibited in the dose matrix, 72 h); higher = more inhibition; extreme values may be limits of the assay
Outline: as §1

[7] = system: KNS-62 (Squamous Cell Lung Carcinoma); test: as above
Outline: as §1

[8] = system: L-363 (Plasma Cell Myeloma); test: as above
Outline: as §1

[9] = system: MRK-nu-1 (Breast Carcinoma); test: as above
Outline: as §1

[10] = system: NCI-H1648 (Lung Adenocarcinoma); test: as above
Outline: as §1

[11] = system: NCI-H2023 (Non-Small Cell Lung Carcinoma); test: as above
Outline: as §1

[12] = system: JJN-3 (Plasma Cell Myeloma); test: Bliss excess, mean over the matrix (fraction); higher = more synergy
Outline: as §1

[13] = system: SCC90 (Head and Neck Carcinoma); test: as above
Outline: as §1

[14] = system: NCI-H1944 (Lung Adenocarcinoma); test: combination Emax (second highest fraction inhibited in the dose matrix, 72 h); higher = more inhibition; extreme values may be limits of the assay
Outline: as §1
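For Bliss excess, mean over the matrix in this document: after 72 h of two-drug dosing.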

SMILES | Bliss excess [1] | Bliss excess [2] | Bliss excess [3] | Bliss excess [4] | Bliss excess [5] | combination Emax [6] | combination Emax [7] | combination Emax [8] | combination Emax [9] | combination Emax [10] | combination Emax [11] | Bliss excess [12] | Bliss excess [13] | combination Emax [14]
C=CCn1c(=O)c2cnc(Nc3ccc(N4CCN(C)CC4)cc3)nc2n1-c1cccc(C(C)(C)O)n1 [AZD1775] + Nc1ccn([C@@H]2O[C@H](CO)[C@@H](O)C2(F)F)c(=O)n1 [Gemcitabine] (first compound max 1 µM, partner max 0.3 µM) | 0.0191 | -0.0038 | 0.0606 | 0.0069 | -0.0109 | 0.697 | 0.561 | 0.983 | 0.688 | 0.643 | 0.656 | – | – | –
CN(CCO)CC[C@H](CSc1ccccc1)Nc1ccc(S(=O)(=O)NC(=O)c2ccc(N3CCC([C@@H](O)c4ccccc4-c4ccc(Cl)cc4)CC3)cc2)cc1S(=O)(=O)C(F)(F)F [AZD4320] + CS(=O)(=O)CCNCc1ccc(-c2ccc3ncnc(Nc4ccc(OCc5cccc(F)c5)c(Cl)c4)c3c2)o1 [Lapatinib] (first compound max 1 µM, 7x7, partner max 10 µM) | 0.0372 | -0.0316 | -0.0017 | 0.0316 | 0.105 | 0.957 | 0.291 | 0.154 | 0.387 | 0.952 | 0.301 | – | – | –
Cc1c2c(nn1C)CSCc1cc(n(C)n1)CSc1cc(c3ccccc3c1)OCCCc1c(C(=O)O)n(C)c3c-2c(Cl)ccc13 [AZD5991] + CC(=O)O[C@H]1C(=O)[C@@]2(C)[C@H]([C@H](OC(=O)c3ccccc3)[C@]3(O)C[C@H](OC(=O)[C@H](O)[C@@H](NC(=O)c4ccccc4)c4ccccc4)C(C)=C1C3(C)C)[C@]1(OC(C)=O)CO[C@@H]1C[C@@H]2O [Paclitaxel] (first compound max 1 µM, 7x7, partner max 3 µM) | -0.0329 | -0.0144 | 0.0027 | -0.0449 | 0.0763 | 0.806 | 0.6 | 1 | 1 | 0.929 | 0.537 | – | – | –
Cc1c2c(nn1C)CSCc1cc(n(C)n1)CSc1cc(c3ccccc3c1)OCCCc1c(C(=O)O)n(C)c3c-2c(Cl)ccc13 [AZD5991] + CS(=O)(=O)CCNCc1ccc(-c2ccc3ncnc(Nc4ccc(OCc5cccc(F)c5)c(Cl)c4)c3c2)o1 [Lapatinib] (first compound max 1 µM, 7x7, partner max 10 µM) | 0.0211 | -0.023 | -0.0136 | -0.0651 | 0.0331 | 0.825 | 0.213 | 0.993 | 1 | 0.895 | 0.284 | – | – | –
Cc1c2c(nn1C)CSCc1cc(n(C)n1)CSc1cc(c3ccccc3c1)OCCCc1c(C(=O)O)n(C)c3c-2c(Cl)ccc13 [AZD5991] + Nc1ccn([C@@H]2O[C@H](CO)[C@@H](O)C2(F)F)c(=O)n1 [Gemcitabine] (first compound max 1 µM, 7x7, partner max 0.3 µM) | 0.033 | -0.0061 | -0.0361 | -0.0245 | -0.0715 | 0.558 | 0.413 | 0.999 | 1 | 0.5 | 0.612 | – | – | –
C[C@@H]1COCCN1c1cc(C2([S@](C)(=N)=O)CC2)nc(-c2ccnc3[nH]ccc23)n1 [AZD6738] + C1CC(C1)(C(=O)[O-])C(=O)[O-].N.N.[Pt+2] [Carboplatin] (first compound max 10 µM, 7x7, partner max 10 µM) | -0.0173 | -0.0579 | -0.0556 | -0.0748 | -0.0446 | 0.382 | 0.438 | 0.528 | 0.6 | 0.571 | 0.608 | – | – | –
C[C@@H]1COCCN1c1cc(C2([S@](C)(=N)=O)CC2)nc(-c2ccnc3[nH]ccc23)n1 [AZD6738] + Nc1ccn([C@@H]2O[C@H](CO)[C@@H](O)C2(F)F)c(=O)n1 [Gemcitabine] (first compound max 10 µM, 7x7, partner max 0.3 µM) | 0.0099 | 0.0542 | 0.0954 | 0.0379 | -0.0128 | 0.726 | 0.665 | 0.941 | 0.781 | 0.725 | 0.684 | – | – | –
C[C@@H](Nc1cc(F)cc(F)c1)c1cc(C(=O)N(C)C)cc2c(=O)cc(N3CCOCC3)oc12 [AZD8186] + CC(=O)c1c(C)c2cnc(Nc3ccc(N4CCNCC4)cn3)nc2n(C2CCCC2)c1=O [Palbociclib] (first compound max 10 µM, 7x7, partner max 10 µM) | 0.0867 | 0.0672 | -0.0184 | 0.0814 | 0.101 | 0.164 | 0.358 | 0.737 | 0.36 | 0.579 | 0.399 | – | – | –
C[C@@H](Oc1cc(-c2cnn(C3CCNCC3)c2)cnc1N)c1c(Cl)ccc(F)c1Cl [Crizotinib] + CC1=C(C(=CC=C1)Cl)NC(=O)C2=CN=C(S2)NC3=CC(=NC(=N3)C)N4CCN(CC4)CCO [Dasatinib] (first compound max 10 µM, 7x7, partner max 2 µM) | 0.0312 | 0.0331 | 0.0662 | -0.0523 | -0.0926 | 0.778 | 0.302 | 0.632 | 0.218 | 0.908 | 0.607 | – | – | –
C[C@@H](Oc1cc(-c2cnn(C3CCNCC3)c2)cnc1N)c1c(Cl)ccc(F)c1Cl [Crizotinib] + Cn1cnc2c(F)c(Nc3ccc(Br)cc3Cl)c(C(=O)NOCCO)cc21 [Selumetinib] (first compound max 10 µM, 7x7, partner max 10 µM) | -0.045 | -0.108 | 0.0062 | -0.0034 | -0.0443 | 0.412 | 0.369 | 0.871 | 0.224 | 0.58 | 0.57 | – | – | –
CS(=O)(=O)CCNCc1ccc(-c2ccc3ncnc(Nc4ccc(OCc5cccc(F)c5)c(Cl)c4)c3c2)o1 [Lapatinib] + NC1(c2ccc(-c3nc4ccn5c(=O)[nH]nc5c4cc3-c3ccccc3)cc2)CCC1 [MK-2206] (first compound max 10 µM, 7x7, partner max 10 µM) | 0.0584 | 0.0349 | -0.0246 | -0.0572 | 0.0833 | 0.9 | 0.721 | 0.912 | 0.361 | 0.99 | 0.637 | 0.0508 | 0.0358 | 0.941
O=C(c1cc(Cc2n[nH]c(=O)c3ccccc23)ccc1F)N1CCN(C(=O)C2CC2)CC1 [Olaparib] + CC1(C)CCC(CN2CCN(c3ccc(C(=O)NS(=O)(=O)c4ccc(NCC5CCOCC5)c([N+](=O)[O-])c4)c(Oc4cnc5[nH]ccc5c4)c3)CC2)=C(c2ccc(Cl)cc2)C1 [Venetoclax] (first compound max 10 µM, 7x7, partner max 1 µM) | 0.0012 | -0.0403 | -0.0323 | -0.0534 | -0.0111 | 0.239 | 0.147 | 0.305 | 0.293 | 0.118 | 0.134 | – | – | –
O=C(c1cc(Cc2n[nH]c(=O)c3ccccc23)ccc1F)N1CCN(C(=O)C2CC2)CC1 [Olaparib] + CN(CC[C@H](CSC1=CC=CC=C1)NC2=C(C=C(C=C2)S(=O)(=O)NC(=O)C3=CC=C(C=C3)N4CCC(CC4)[C@H](C5=CC=CC=C5C6=CC=C(C=C6)Cl)O)S(=O)(=O)C(F)(F)F)CCO [AZD4320] (first compound max 10 µM, 7x7, partner max 1 µM) | 0.061 | -0.0497 | -0.0603 | -0.0365 | 0.0073 | 0.342 | 0.153 | 0.403 | 0.395 | 0.359 | 0.165 | – | – | –
O=C(c1cc(Cc2n[nH]c(=O)c3ccccc23)ccc1F)N1CCN(C(=O)C2CC2)CC1 [Olaparib] + COc1nnc2ccc(N3CCC(c4ccc(OCCN5CCN(C)C(=O)[C@H]5C)cc4)CC3)nn12 [AZD5153] (first compound max 10 µM, 7x7, partner max 1 µM) | -0.0048 | -0.0388 | -0.044 | -0.0814 | -0.0601 | 0.613 | 0.436 | 0.468 | 0.467 | 0.684 | 0.344 | – | – | –
O=C(c1cc(Cc2n[nH]c(=O)c3ccccc23)ccc1F)N1CCN(C(=O)C2CC2)CC1 [Olaparib] + Cc1c2c(nn1C)CSCc1cc(n(C)n1)CSc1cc(c3ccccc3c1)OCCCc1c(C(=O)O)n(C)c3c-2c(Cl)ccc13 [AZD5991] (first compound max 10 µM, 7x7, partner max 1 µM) | 0.0737 | -0.0083 | -0.0445 | -0.0478 | -0.0325 | 0.168 | 0.128 | 0.989 | 1 | 0.384 | 0.12 | – | – | –
Cc1nc(-c2cn3c(n2)-c2ccc(-c4cnn(C(C)(C)C(N)=O)c4)cc2OCC3)n(C(C)C)n1 [Taselisib] + O=C(Nc1ccc2[nH]nc(-c3ccncc3)c2c1)[C@@H]1CCN(CC(=O)N2CCN(c3ccc(-c4ncccn4)cc3)CC2)C1 [SCH772984] (first compound max 10 µM, 7x7, partner max 5 µM) | 0.139 | 0.115 | 0.0964 | 0.0017 | 0.0102 | 0.935 | 0.787 | 0.63 | 0.542 | 1 | 0.665 | – | – | –
CC1(C)CCC(CN2CCN(c3ccc(C(=O)NS(=O)(=O)c4ccc(NCC5CCOCC5)c([N+](=O)[O-])c4)c(Oc4cnc5[nH]ccc5c4)c3)CC2)=C(c2ccc(Cl)cc2)C1 [Venetoclax] + CS(=O)(=O)CCNCc1ccc(-c2ccc3ncnc(Nc4ccc(OCc5cccc(F)c5)c(Cl)c4)c3c2)o1 [Lapatinib] (first compound max 1 µM, 7x7, partner max 10 µM) | 0.022 | 0.04 | -0.0358 | -0.0188 | 0.0659 | 0.657 | 0.186 | 0.133 | 0.114 | 0.624 | 0.195 | – | – | –
